According to patent US4351840A, “Antibacterial esters of resorcinol with ampicillin and penicillanic acid 1,1-dioxide derivatives” (priority 1981, dated 1982):
Where two headings read alike, the source gives them in different places.

Legend:
[1] = molecular target: T1, beta-lactamase from Staphylococcus aureus 01A400 (Staphylococcus aureus, UniProt P00807); assay: Inhibition of ampicillin hydrolysis by cell-free beta-lactamase (microiodometric); type: biochemical
T1 construct: Cell-free extracts were prepared by sonic treatment; endogenous in cells; host or cells: Staphylococcus aureus strain 01A400, induced with penicillin G; cell-free extract by French press
Method: (§1) The compounds of the present invention are thus evaluated in vitro by the ability of penicillanic acid 1,1-dioxide derivatives of the formula (IV) to inhibit the hydrolysis of beta-lactam antibiotics by beta-lactamase enzymes. The hydrolysis of ampicillin was determined by the microiodometric method of Novick [Biochem, J. 83, 236 (1962)]. Conditions for this assay are 0.5 M potassium phosphate, pH 6.5 and 37° C. Reactions were initiated by the addition of the cell-free beta-lactamase, except in the case of preincubation experiments in which the inhibitor and enzyme were incubated together in the assay mixture for 10 minutes before initiation of the reaction by addition of substrate. With the cellfree extracts of Staphylococcus aureus, Escherichia coli, Klebsiella pneumoniae and Pseudomonas aeruginosa, the substrate was ampicillin at 33 micro M (13 microg./ml). Typical specific activities of the beta-lactamase preparations were, respectively, 6,019, 88,970, 260 and 76 micromol/hr. per mg. of protein.
(§2) Cell-free extracts were prepared by sonic treatment (using three 30-s bursts at 4° C. except for S. aureus, which was broken with a French press) of cultures grown in brain heart infusion on a rotary shaker incubator. For the S. aureus, P. aeruginose, and E. cloacae strains, de novo synthesis of beta-lactamase was induced by growing a log-phase culture in the presence of a sublethal concentration of penicillin G at 100, 1,000, and 300 microg./ml, respectively, for 2.5 hr.

[2] = molecular target: beta-lactamase from Pseudomonas aeruginosa 52A104 (Pseudomonas aeruginosa, UniProt P24735); assay: as above; type: biochemical; settings: ampicillin 33 μM, pH 6.5, 37° C., read-out: % Inhibition Beta-Lactam Hydrolysis
Method: as §1, §2

[3] = system: beta-lactamase from Klebsiella pneumoniae 53A129; assay: as above; type: biochemical; settings: ampicillin 33 μM, pH 6.5, 37° C.
Method: as §1, §2

[4] = system: beta-lactamase from Escherichia coli 51A129; assay: as above; type: biochemical; settings: ampicillin 33 μM, pH 6.5, 37° C.
Method: as §1, §2

[5] = system: Escherichia coli 51A266; assay: Minimum inhibitory concentration on BHI agar; type: cell-based; settings: 18 hrs., 37° C., inhibitor alone or 1:1 mixture with ampicillin
Method: (§3) The procedure which follows is the one recommended by the International Collaborative Study on Antibiotic Sensitivity Testing [Ericcson and Sherris, Acta. Pathologica et Microbiologia Scandinav, Supp. 217, Sections A and B: 64-68 (1971)], and employs brain heart infusion (BHI) agar and the inocula replicating device. Overnight growth tubes are diluted 100 fold for use as the standard inoculum (20,000-10,000 cells in approximately 0.002 ml are placed on the agar surface; 20 ml of BHI agar/dish). Twelve 2 fold dilutions of the test compound are employed, with initial concentration of the test drug being 200 mcg/ml. Single colonies are disregarded when reading tubes after 18 hrs. at 37° C.
(§4) These MIC's are then compared with the MIC values obtained with a combination of ampicillin and the beta-lactamase inhibitor. […] The MIC values of combinations are measured using the method described by Barry and Sabath in "Manual of Clinical Microbiology", edited by Lenette, Spaulding and Truant, 2nd Edition, 1974, American Society for Microbiology.

[6] = system: Staphylococcus aureus 01A005; assay: Minimum inhibitory concentration on BHI agar; type: cell-based; settings: 18 hrs., 37° C., inhibitor alone or 1:1 mixture with ampicillin
Method: as §3, §4

[7] = system: Citrobacter diversus 70C031; assay: Minimum inhibitory concentration on BHI agar; type: cell-based; settings: 18 hrs., 37° C., inhibitor alone or 1:1 mixture with ampicillin
Method: as §3, §4

[8] = system: Enterobacter cloacae 67B009; assay: Minimum inhibitory concentration on BHI agar; type: cell-based; settings: 18 hrs., 37° C., inhibitor alone or 1:1 mixture with ampicillin
Method: as §3, §4

[9] = system: Klebsiella pneumoniae 53A079; assay: Minimum inhibitory concentration on BHI agar; type: cell-based; settings: 18 hrs., 37° C., inhibitor alone or 1:1 mixture with ampicillin
Method: as §3, §4

[10] = system: Proteus morgani 57G001; assay: Minimum inhibitory concentration on BHI agar; type: cell-based; settings: 18 hrs., 37° C., inhibitor alone or 1:1 mixture with ampicillin
Method: as §3, §4

[11] = system: Serratia marcescens 63A095; assay: Minimum inhibitory concentration on BHI agar; type: cell-based; settings: 18 hrs., 37° C., inhibitor alone or 1:1 mixture with ampicillin
Method: as §3, §4

[12] = system: Pseudomonas aeruginosa 52A104; assay: Minimum inhibitory concentration on BHI agar; type: cell-based; settings: 18 hrs., 37° C., inhibitor alone or 1:1 mixture with ampicillin
Method: as §3, §4

[13] = system: Staphylococcus aureus 01A400; assay: Minimum inhibitory concentration on BHI agar; type: cell-based; settings: 18 hrs., 37° C., inhibitor alone or 1:1 mixture with ampicillin
Method: as §3, §4

[14] = pH 6.5, read-out: % Inhibition Beta-Lactam Hydrolysis

T1 sequence (P00807 25-281): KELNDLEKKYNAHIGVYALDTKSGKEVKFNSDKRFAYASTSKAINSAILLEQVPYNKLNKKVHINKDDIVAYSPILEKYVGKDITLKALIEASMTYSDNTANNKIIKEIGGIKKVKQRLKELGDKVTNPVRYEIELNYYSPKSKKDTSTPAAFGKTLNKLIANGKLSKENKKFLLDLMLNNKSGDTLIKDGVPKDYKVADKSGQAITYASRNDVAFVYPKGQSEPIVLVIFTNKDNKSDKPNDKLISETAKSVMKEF
beta-lactamase from Pseudomonas aeruginosa 52A104, sequence (P24735 27-397): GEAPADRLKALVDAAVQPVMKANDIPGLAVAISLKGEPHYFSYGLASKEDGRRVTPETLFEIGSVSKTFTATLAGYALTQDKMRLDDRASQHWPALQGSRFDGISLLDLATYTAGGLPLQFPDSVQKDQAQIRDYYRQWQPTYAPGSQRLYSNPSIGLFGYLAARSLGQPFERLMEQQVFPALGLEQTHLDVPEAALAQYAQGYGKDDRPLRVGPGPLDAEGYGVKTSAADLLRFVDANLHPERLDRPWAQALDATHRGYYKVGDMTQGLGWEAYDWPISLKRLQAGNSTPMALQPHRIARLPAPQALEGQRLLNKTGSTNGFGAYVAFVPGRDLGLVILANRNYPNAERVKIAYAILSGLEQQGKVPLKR

CC1(C)[C@H](C(=O)O)N2C(=O)C[C@H]2S1(=O)=O [B, Penicillanic acid 1,1-dioxide]
inhibition at 1 µM [1, 14]: 0% | inhibition at 16.5 µM [1, 14]: 95% | inhibition at 66 µM [1, 14]: 100% | inhibition at 16.5 µM ([2]; inhibitor 16.5 μM): 5% | inhibition at 66 µM ([2]; inhibitor 66 μM): 27.5% | % Inhibition Beta-Lactam Hydrolysis ([3]; inhibitor 16.5 μM): 100% | % Inhibition Beta-Lactam Hydrolysis ([3]; inhibitor 66 μM): 100% | % Inhibition Beta-Lactam Hydrolysis ([4]; inhibitor 1.0 μM): 97.0% | % Inhibition Beta-Lactam Hydrolysis ([4]; inhibitor 16.5 μM): 100% | % Inhibition Beta-Lactam Hydrolysis ([4]; inhibitor 66 μM): 100% | MIC [5]: 25 µg/mL | MIC [6]: 100 µg/mL | MIC [7]: 200 µg/mL | MIC [8]: 100 µg/mL | MIC [9]: 50 µg/mL | MIC [10]: 200 µg/mL | MIC [11]: 200 µg/mL | MIC [12]: > 200 µg/mL | MIC [13]: 200 µg/mL

CC1(C)[C@H](C(=O)O)N2C(=O)[C@@H](CO)[C@H]2S1(=O)=O [A, 6-beta-(Hydroxymethyl)pencillanic acid 1,1-dioxide]
inhibition at 1 µM ([1]; inhibitor 1.0 μM, ampicillin 33 μM, pH 6.5, 37° C., read-out: % Inhibition Beta-Lactam Hydrolysis): 39.3% | inhibition at 16.5 µM ([1]; inhibitor 16.5 μM, ampicillin 33 μM, pH 6.5, 37° C., read-out: % Inhibition Beta-Lactam Hydrolysis): 78.8% | inhibition at 66 µM ([1]; inhibitor 66 μM, ampicillin 33 μM, pH 6.5, 37° C., read-out: % Inhibition Beta-Lactam Hydrolysis): 98.3% | % Inhibition Beta-Lactam Hydrolysis ([3]; inhibitor 1.0 μM): 81.2% | % Inhibition Beta-Lactam Hydrolysis ([3]; inhibitor 16.5 μM): 100% | % Inhibition Beta-Lactam Hydrolysis ([3]; inhibitor 66 μM): 100% | % Inhibition Beta-Lactam Hydrolysis ([4]; inhibitor 0.67 μM): 92.1% | % Inhibition Beta-Lactam Hydrolysis ([4]; inhibitor 1.0 μM): 95.7% | % Inhibition Beta-Lactam Hydrolysis ([4]; inhibitor 16.5 μM): 100% | % Inhibition Beta-Lactam Hydrolysis ([4]; inhibitor 66 μM): 100%
